Literature values in patent publication US7029655B2, “Magnetic resonance imaging agents for in vivo labeling and detection of amyloid deposits” (California Institute of Technology, priority 2000, dated 2006).

Conditions: thermodynamic stability of the Gd(III) chelate

stability constant (K) / formation constant, logK	Structure (SMILES)
22.4	O=C([O-])CN(CCN(CC(=O)[O-])CC(=O)[O-])CCN(CC(=O)[O-])CC(=O)[O-].[Gd+3] [Gd(DTPA)^2−]
28.5	O=C([O-])CN1CCN(CC(=O)[O-])CCN(CC(=O)[O-])CCN(CC(=O)[O-])CC1.[Gd+3] [Gd-DOTA]
